The text below walks through data of paper PMC9257626 (RSC Chemical Biology, 2022).

Counter-ions that a name gives are not always drawn.

In the test the target is GAPDH (endogenous, HeLa / Jurkat) (Homo sapiens, UniProt P04406). In kind it is biochemical.
GAPDH (endogenous, HeLa / Jurkat), sequence (P04406 2-335 limits assumed): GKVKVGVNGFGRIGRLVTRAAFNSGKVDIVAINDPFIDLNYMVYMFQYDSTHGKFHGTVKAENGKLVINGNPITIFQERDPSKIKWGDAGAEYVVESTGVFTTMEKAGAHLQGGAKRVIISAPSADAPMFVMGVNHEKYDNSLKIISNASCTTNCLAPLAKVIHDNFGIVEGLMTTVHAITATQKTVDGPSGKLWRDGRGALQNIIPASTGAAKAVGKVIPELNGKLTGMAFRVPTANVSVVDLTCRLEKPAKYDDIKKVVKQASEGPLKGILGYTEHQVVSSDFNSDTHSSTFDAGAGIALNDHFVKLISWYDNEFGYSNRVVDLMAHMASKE

`O=C(O)C(=O)CBr` [3-BP, 3-bromopyruvate]: the “loss of SEC1 labeling at 5 μM” value was 3-BP, IA and DMF showed complete loss of SEC1 labeling even at the lower concentration. Under `COC(=O)/C=C/C(=O)OC` [DMF, dimethyl fumarate] stands 3-BP, IA and DMF showed complete loss of SEC1 labeling even at the lower concentration.
